From PubChem BioAssay AID1259411 (Chemical Carcinogenesis Research Information System (CCRIS), 2018)
Active and inactive are the calls of the source. How the calls were made is not given here.

Test system: rodent carcinogenicity bioassays, tumor incidence
Assay: CCRIS carcinogenicity studies
Method in brief: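 Archive of carcinogenicity, mutagenicity, tumor promotion and tumor inhibition results drawn from journals, NCI reports and other sources, expert-reviewed; covers 1985-2011 and is no longer updated.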

For `Nc1cc([N+](=O)[O-])ccc1C(=O)O`, the carcinogen call (Species: MOUSE, Strain/Sex: B6C3F1/FEMALE, Route: ORAL, Dose: 0, 0.46, 1.0% OF DIET, TWA, Dose: 0, 0.46, 1.0% OF DIET, TWA) was “inactive; negative”, the carcinogen call (Species: MOUSE, Strain/Sex: B6C3F1/MALE, Route: ORAL, Dose: 0, 0.46, 1.0% OF DIET, TWA, Dose: 0, 0.46, 1.0% OF DIET, TWA) was “inactive; negative” and the carcinogen call (Species: RAT, Strain/Sex: F344/FEMALE, Route: ORAL, Dose: 0, 0.46, 1.5% OF DIET, TWA, Dose: 0, 0.46, 1.5% OF DIET, TWA) was “inactive; negative”. The carcinogen call (Species: RAT, Strain/Sex: F344/MALE, Route: ORAL, Dose: 0, 0.46, 1.5% OF DIET, TWA, Dose: 0, 0.46, 1.5% OF DIET, TWA) was “inactive; negative”.
In the case of `CCC(=O)C(CC(C)N(C)C)(c1ccccc1)c1ccccc1` (stereo not drawn), the carcinogen call (Species: MOUSE, Strain/Sex: B6C3F1/FEMALE, Route: ORAL, Dose: 0, 15, 60 MG/KG IN DIET FOR DURATION OF STUDY (STUDY DURATION: 108 WK), Dose: 0, 15, 60 MG/KG IN DIET FOR DURATION OF STUDY (STUDY DURATION: 108 WK)) was “inactive; negative”, the carcinogen call (Species: MOUSE, Strain/Sex: B6C3F1/MALE, Route: ORAL, Dose: 0, 15, 60 MG/KG IN DIET FOR DURATION OF STUDY (STUDY DURATION: 108 WK), Dose: 0, 15, 60 MG/KG IN DIET FOR DURATION OF STUDY (STUDY DURATION: 108 WK)) was “inactive; negative” and the carcinogen call (Species: RAT, Strain/Sex: F344/FEMALE, Route: ORAL, Dose: 0, 28, 88 MG/KG IN DIET FOR DURATION OF STUDY (STUDY DURATION: 108 WK), Dose: 0, 28, 88 MG/KG IN DIET FOR DURATION OF STUDY (STUDY DURATION: 108 WK)) was “inactive; negative”. For the same compound, the carcinogen call (Species: RAT, Strain/Sex: F344/MALE, Route: ORAL, Dose: 0, 16, 46 MG/KG IN DIET FOR DURATION OF STUDY (STUDY DURATION: 108 WK), Dose: 0, 16, 46 MG/KG IN DIET FOR DURATION OF STUDY (STUDY DURATION: 108 WK)) was “inactive; negative”.
`CC(N)=O` was tested, and the carcinogen call (Species: RAT, Strain/Sex: WISTAR/MALE, Route: ORAL, Dose: 1.25, 2.5, 5% IN DIET FOR ONE YR, Dose: 1.25, 2.5, 5% IN DIET FOR ONE YR, Tumor Site: Type of Lesion: LIVER: TRABECULAR CARCINOMA, ADENOCARCINOMA, HEPATOMA) was “active; positive”.
`C[C@]12C=CC(=O)C=C1CC[C@@H]1[C@@H]2C(=O)C[C@@]2(C)[C@H]1CC[C@]2(O)C(=O)CO` was tested, and the carcinogen call (Species: MOUSE, Strain/Sex: ICR/FEMALE, Route: ORAL, Dose: 0, 0.25, 0.5, 1, 5 MG/KG/D FOR 18 MO (STUDY DURATION: 18 MO), Dose: 0, 0.25, 0.5, 1, 5 MG/KG/D FOR 18 MO (STUDY DURATION: 18 MO)) was “inactive; negative” and the carcinogen call (Species: MOUSE, Strain/Sex: ICR/MALE, Route: ORAL, Dose: 0, 0.25, 0.5, 1, 5 MG/KG/D FOR 18 MO (STUDY DURATION: 18 MO), Dose: 0, 0.25, 0.5, 1, 5 MG/KG/D FOR 18 MO (STUDY DURATION: 18 MO)) was “inactive; negative”.
For `Cc1c([N+](=O)[O-])c2ccccc2c2ccc3ccccc3c12`, the carcinogen call (Species: MOUSE, Strain/Sex: SWISS/FEMALE, Route: INTRAPERITONEAL, Dose: 0, 100 NMOL (TOTAL DOSE) ADMINISTERED 1/7, 2/7 AND 4/7 ON DAY 1, 8 AND 15 RESPECTIVELY (STUDY DURATION: 32 WK)) was “inactive; negative” and the carcinogen call (Species: MOUSE, Strain/Sex: SWISS/MALE, Route: INTRAPERITONEAL, Dose: 0, 100 NMOL (TOTAL DOSE) ADMINISTERED 1/7, 2/7 AND 4/7 ON DAY 1, 8 AND 15 RESPECTIVELY (STUDY DURATION: 32 WK), Tumor Site: Type of Lesion: LIVER: TUMOR) was “active; positive”.
For `CC(=NC#N)N(C)Cc1ccc(Cl)nc1`, the carcinogen call (Species: Mouse, Strain/Sex: Crl:CD-1 (ICR)BR/Female, Route: Oral, Dose: 0, 130, 400, 1200 ppm (0; 25; 76; 215 mg/kg/day) in feed for 18 mo, Dose: 0, 130, 400, 1200 ppm (0; 25; 76; 215 mg/kg/day) in feed for 18 mo) was “inactive; negative”, the carcinogen call (Species: Mouse, Strain/Sex: Crl:CD-1 (ICR)BR/Male, Route: Oral, Dose: 0, 130, 400, 1200 ppm (0; 20; 66; 186 mg/kg/day) in feed for 18 mo, Dose: 0, 130, 400, 1200 ppm (0; 20; 66; 186 mg/kg/day) in feed for 18 mo) was “inactive; negative” and the carcinogen call (Species: Rat, Strain/Sex: Crl:CD BR/Female, Route: Oral, Dose: 0, 160, 400, 1000 ppm (0; 8.8; 22.6; 60.0 mg/kg/day) in feed for 2 yr, Dose: 0, 160, 400, 1000 ppm (0; 8.8; 22.6; 60.0 mg/kg/day) in feed for 2 yr) was “inactive; negative”. For the same compound, the carcinogen call (Species: Rat, Strain/Sex: Crl:CD BR/Male, Route: Oral, Dose: 0, 160, 400, 1000 ppm (0; 7.1; 17.5; 46.4 mg/kg/day) in feed for 2 yr, Dose: 0, 160, 400, 1000 ppm (0; 7.1; 17.5; 46.4 mg/kg/day) in feed for 2 yr) was “inactive; negative”.
In the case of `C=C(C)CCl`, the carcinogen call (Species: MOUSE, Strain/Sex: B6C3F1/FEMALE, Route: GAVAGE, Dose: 0, 100, 200 MG/KG IN CORN OIL 5 D/WK FOR 103 WK (STUDY DURATION: 2 YR), Dose: 0, 100, 200 MG/KG IN CORN OIL 5 D/WK FOR 103 WK (STUDY DURATION: 2 YR), Tumor Site: Type of Lesion: FORESTOMACH: EPITHELIAL HYPERPLASIA, SQUAMOUS CELL PAPILLOMA) was “active; positive”, the carcinogen call (Species: MOUSE, Strain/Sex: B6C3F1/FEMALE, Route: GAVAGE, Dose: 0, 100, 200 MG/KG IN CORN OIL 5 D/WK FOR 103 WK, Dose: 0, 100, 200 MG/KG IN CORN OIL 5 D/WK FOR 103 WK, Tumor Site: Type of Lesion: FORESTOMACH: SQUAMOUS CELL PAPILLOMA, SQUAMOUS CELL PAPILLOMA OR CARCINOMA) was “active; positive” and the carcinogen call (Species: MOUSE, Strain/Sex: B6C3F1/MALE, Route: GAVAGE, Dose: 0, 100, 200 MG/KG IN CORN OIL 5 D/WK FOR 103 WK (STUDY DURATION: 2 YR), Dose: 0, 100, 200 MG/KG IN CORN OIL 5 D/WK FOR 103 WK (STUDY DURATION: 2 YR), Tumor Site: Type of Lesion: FORESTOMACH: EPITHELIAL HYPERPLASIA, SQUAMOUS CELL PAPILLOMA, SQUAMOUS CELL CARCINOMA) was “active; positive”. For the same compound, the carcinogen call (Species: MOUSE, Strain/Sex: B6C3F1/MALE, Route: GAVAGE, Dose: 0, 100, 200 MG/KG IN CORN OIL 5 D/WK FOR 103 WK, Dose: 0, 100, 200 MG/KG IN CORN OIL 5 D/WK FOR 103 WK, Tumor Site: Type of Lesion: FORESTOMACH: SQUAMOUS CELL PAPILLOMA, SQUAMOUS CELL CARCINOMA) was “active; positive”, the carcinogen call (Species: MOUSE, Strain/Sex: BDF1/FEMALE, Route: INHALATION, Dose: 0, 50, 100, 200 PPM 6 HR/D 5 D/WK FOR 104 WK (STUDY DURATION: 104 WK), Dose: 0, 50, 100, 200 PPM 6 HR/D 5 D/WK FOR 104 WK (STUDY DURATION: 104 WK), Tumor Site: Type of Lesion: HARDERIAN GLAND: ADENOMA) was “active; positive” and the carcinogen call (Species: MOUSE, Strain/Sex: BDF1/MALE, Route: INHALATION, Dose: 0, 50, 100, 200 PPM 6 HR/D 5 D/WK FOR 104 WK (STUDY DURATION: 104 WK), Dose: 0, 50, 100, 200 PPM 6 HR/D 5 D/WK FOR 104 WK (STUDY DURATION: 104 WK)) was “inactive; negative”. For the same compound, the carcinogen call (Species: RAT, Strain/Sex: F344/FEMALE, Route: GAVAGE, Dose: 0, 75, 150 MG/KG IN CORN OIL 5 D/WK FOR 103 WK (STUDY DURATION: 2 YR), Dose: 0, 75, 150 MG/KG IN CORN OIL 5 D/WK FOR 103 WK (STUDY DURATION: 2 YR), Tumor Site: Type of Lesion: FORESTOMACH: BASAL CELL HYPERPLASIA, SQUAMOUS CELL PAPILLOMA) was “active; positive”, the carcinogen call (Species: RAT, Strain/Sex: F344/FEMALE, Route: GAVAGE, Dose: 0, 75, 150 MG/KG IN CORN OIL 5 D/WK FOR 103 WK, Dose: 0, 75, 150 MG/KG IN CORN OIL 5 D/WK FOR 103 WK, Tumor Site: Type of Lesion: FORESTOMACH: PAPILLOMA) was “active; positive” and the carcinogen call (Species: RAT, Strain/Sex: F344/MALE, Route: GAVAGE, Dose: 0, 75, 150 MG/KG IN CORN OIL 5 D/WK FOR 103 WK (STUDY DURATION: 2 YR), Dose: 0, 75, 150 MG/KG IN CORN OIL 5 D/WK FOR 103 WK (STUDY DURATION: 2 YR), Tumor Site: Type of Lesion: FORESTOMACH: BASAL CELL OR EPITHELIAL HYPERPLASIA, SQUAMOUS CELL PAPILLOMA) was “active; positive”. For the same compound, the carcinogen call (Species: RAT, Strain/Sex: F344/MALE, Route: GAVAGE, Dose: 0, 75, 150 MG/KG IN CORN OIL 5 D/WK FOR 103 WK, Dose: 0, 75, 150 MG/KG IN CORN OIL 5 D/WK FOR 103 WK, Tumor Site: Type of Lesion: FORESTOMACH: PAPILLOMA) was “active; positive”.
For `NC(Cc1ccc(N(CCCl)CCCl)cc1)C(=O)O` (stereo not drawn), the carcinogen call (Species: RAT, Strain/Sex: SWISS/FEMALE, Route: INTRAPERITONEAL, Dose: 10 MG/KG, Tumor Site: Type of Lesion: MAMMARY GLAND: FIBROADENOMA) was “active; positive”.
